For 18 compounds, IC50 results are on record in patent publication US20090111798A1, “5,6-DIHYDRO-1H-PYRIDIN-2-ONE COMPOUNDS” (priority 2006, published 2009).

Where a name gives a salt, the structure may show the parent alone. Bounds are passed on as bounds.

NS5B polymerase, sequence (P26663 2420-3010): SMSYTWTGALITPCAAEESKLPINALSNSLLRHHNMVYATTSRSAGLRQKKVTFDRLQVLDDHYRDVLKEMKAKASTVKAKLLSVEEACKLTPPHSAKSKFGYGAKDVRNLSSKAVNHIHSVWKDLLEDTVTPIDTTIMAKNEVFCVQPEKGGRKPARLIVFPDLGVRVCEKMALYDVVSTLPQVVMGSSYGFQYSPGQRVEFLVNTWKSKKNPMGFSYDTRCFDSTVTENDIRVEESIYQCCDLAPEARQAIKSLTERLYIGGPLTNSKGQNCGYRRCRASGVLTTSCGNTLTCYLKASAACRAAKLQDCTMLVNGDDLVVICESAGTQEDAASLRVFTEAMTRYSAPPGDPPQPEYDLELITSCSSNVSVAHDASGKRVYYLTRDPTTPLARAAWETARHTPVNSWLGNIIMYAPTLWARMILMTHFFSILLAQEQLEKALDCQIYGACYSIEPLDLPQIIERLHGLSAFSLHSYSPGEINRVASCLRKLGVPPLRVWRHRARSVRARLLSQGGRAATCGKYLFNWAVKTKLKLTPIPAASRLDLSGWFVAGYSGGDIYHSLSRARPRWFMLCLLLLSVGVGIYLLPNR

The assay has as its target NS5B polymerase (Hepatitis C virus genotype 1b, UniProt P26663). Briefly: biochemical. The note with it: NS5B polymerase inhibition; 20 nM enzyme, 75 min at 28° C. The procedure: Compounds were tested for HCV polymerase inhibition. Assays were performed in a 96-well streptavidin-coated FlashPlate using 20 nM enzyme, 0.5μ Ci of [α-^33P]GTP, 0.6 μM GTP, and 250 nM 5′biotinylated oligo (rG13)/poly rC in 20 mM Tris-HCl, pH 7.5, 5 mM MgCl2, 5 mM dithiothreitol, 0.1 g/L bovine serum albumin, and 100 U/mL RNAse inhibitor. The reaction was stopped by aspiration after 75 min at 28° C. and the plate was washed several times. After washing and drying the plate, incorporated radioactivity was counted using a Microbeta scintillation counter. IC50 values were calculated relative to the uninhibited control and inhibition data were fitted to a 4-parameter IC50 equation.
The compound `O=C1C(C2=NS(=O)(=O)c3cc(C4CCCS4(=O)=O)ccc3N2)=C(O)[C@@H]2CCC[C@@H]2N1Cc1ccc(F)cc1` (mixture of isomers) [Example 45, (4aR,7aS)-3-[7-(1,1-Dioxo-tetrahydro-1λ^6-thiophen-2-yl)-1,1-dioxo-1,4-dihydro-1λ^6-benzo[1,2,4]thiadiazin-3-yl]-1-(4-fluoro-benzyl)-4-hydroxy-1,4a,5,6,7,7a-hexahydro-[1]pyrindin-2-one] returned an IC50 of 20 to 100 nM. Turning to `O=C1C(C2=NS(=O)(=O)c3ccccc3N2)=C(O)C2CCCC2N1Cc1ccc(F)cc1` (mixture of isomers) [Example 51], the IC50 was in the range of 100 to 1000 nM. As to `CS(=O)(=O)Nc1ccc2c(c1)S(=O)(=O)N=C(C1=C(O)C3CCCCCC3N(CCC3CC3)C1=O)N2` (mixture of isomers) [Example 58, N-{3-[1-(2-Cyclopropyl-ethyl)-4-hydroxy-2-oxo-2,4a,5,6,7,8,9,9a-octahydro-1H-cyclohepta[b]pyridin-3-yl]-1,1-dioxo-1,4-dihydro-1λ^6-benzo[1,2,4]thiadiazin-7-yl}-methanesulfonamide], the IC50 is 20 to 100 nM. On to `CS(=O)(=O)Nc1ccc2c(c1)S(=O)(=O)N=C(C1=C(O)[C@@H]3CCC[C@@H]3N(Cc3ccc(F)cc3)C1=O)N2` (relative stereo) [Example 1, cis-N-{3-[1-(4-Fluoro-benzyl)-4-hydroxy-2-oxo-2,4-a,5,6,7,7a-hexahydro-1H-[1]pyrindin-3-yl]-1,1-dioxo-1,4-dihydro-1λ^6-benzo[1,2,4]thiadiazin-7-yl}-methanesulfonamide], for which the IC50 was under 20 nM. Compound `CS(=O)(=O)Nc1ccc2c(c1)S(=O)(=O)N=C(C1=C(O)[C@@H]3CCC[C@@H]3N(Cc3ccccn3)C1=O)N2` (relative stereo) [Example 4, cis-N-[3-(4-Hydroxy-2-oxo-1-pyridin-2-ylmethyl-2,4-a,5,6,7,7a-hexahydro-1H-[1]pyrindin-3-yl)-1,1-dioxo-1,4-dihydro-1λ^6-benzo[1,2,4]thiadiazin-7-yl]-methanesulfonamide] came in with a 50% inhibitory concentration (IC50) of 100 to 1000 nM. On to `CS(=O)(=O)Nc1ccc2c(c1)S(=O)(=O)N=C(C1=C(O)[C@@H]3CCC[C@@H]3N(Cc3ccc(F)cn3)C1=O)N2` (relative stereo) [Example 5, cis-N-{3-[1-(5-Fluoro-pyridin-2-ylmethyl)-4-hydroxy-2-oxo-2,4-a,5,6,7,7a-hexahydro-1H-[1]pyrindin-3-yl]-1,1-dioxo-1,4-dihydro-1λ^6-benzo[1,2,4]thiadiazin-7-yl}-methanesulfonamide], for which the IC50 is 100 to 1000 nM. Consider `CN(C)CCN1C(=O)C(C2=NS(=O)(=O)c3cc(NS(C)(=O)=O)ccc3N2)=C(O)[C@@H]2CCC[C@@H]21` (relative stereo) [Example 6], for which the IC50 fell in the range of 1000 to 100000 nM. Consider `CS(=O)(=O)Nc1ccc2c(c1)S(=O)(=O)N=C(C1=C(O)[C@@H]3CCC[C@@H]3N(Cc3ccccc3)C1=O)N2` (relative stereo) [Example 7, cis-N-[3-(1-Benzyl-4-hydroxy-2-oxo-2,4-a,5,6,7,7a-hexahydro-1H-[1]pyrindin-3-yl)-1,1-dioxo-1,4-dihydro-1λ^6-benzo[1,2,4]thiadiazin-7-yl]-methanesulfonamide], for which the IC50 was 20 to 100 nM. As to `CS(=O)(=O)Nc1ccc2c(c1)S(=O)(=O)N=C(C1=C(O)[C@@H]3CCC[C@@H]3N(Cc3cccc(F)c3)C1=O)N2` (relative stereo) [Example 8], the IC50 was under 20 nM.

In turn, `CS(=O)(=O)Nc1ccc2c(c1)S(=O)(=O)N=C(C1=C(O)[C@@H]3CCC[C@@H]3N(CCc3ccccc3)C1=O)N2` (relative stereo) [Example 9, cis-N-[3-(4-Hydroxy-2-oxo-1-phenethyl-2,4-a,5,6,7,7a-hexahydro-1H-[1]pyrindin-3-yl)-1,1-dioxo-1,4-dihydro-1λ^6-benzo[1,2,4]thiadiazin-7-yl]-methanesulfonamide] came in with an IC50 of 100 to 1000 nM. `CS(=O)(=O)Nc1ccc2c(c1)S(=O)(=O)N=C(C1=C(O)[C@@H]3CCC[C@@H]3N(C3CCCC3)C1=O)N2` (relative stereo) [Example 10, cis-N-[3-(1-Cyclopentyl-4-hydroxy-2-oxo-2,4-a,5,6,7,7a-hexahydro-1H-[1]pyrindin-3-yl)-1,1-dioxo-1,4-dihydro-1λ^6-benzo[1,2,4]thiadiazin-7-yl]-methanesulfonamide] had a concentration for half-maximal inhibition (IC50) of 1000 to 100000 nM. With `CC(C)CCN1C(=O)C(C2=NS(=O)(=O)c3cc(NS(C)(=O)=O)ccc3N2)=C(O)[C@H]2CCC[C@H]21` (relative stereo) [Example 17, cis-N-{3-[2-(3-Methylbutyl)-5-hydroxy-3-oxo-2-aza-bicyclo[4.3.0]non-4-en-4-yl]-1,1-dioxo-1,4-dihydro-1λ^6-benzo[1,2,4]thiadiazin-7-yl}-methanesulfonamide], the IC50 is under 20 nM. `CC(C)(C)CCN1C(=O)C(C2=NS(=O)(=O)c3cc(NS(C)(=O)=O)ccc3N2)=C(O)[C@H]2CCC[C@H]21` (relative stereo) [Example 18, cis-N-{3-[2-(3,3-Dimethylbutyl)-5-hydroxy-3-oxo-2-aza-bicyclo[4.3.0]non-4-en-4-yl]-1,1-dioxo-1,4-dihydro-1λ^6-benzo[1,2,4]thiadiazin-7-yl}-methanesulfonamide] had a 50% inhibitory concentration (IC50) of under 20 nM.

With `CS(=O)(=O)Nc1ccc2c(c1)S(=O)(=O)N=C(C1=C(O)[C@@H]3CCC[C@@H]3N(CCC3CC3)C1=O)N2` (relative stereo) [Example 19, cis-N-{3-[2-Cyclopropylethyl-5-hydroxy-3-oxo-2-aza-bicyclo[4.3.0]non-4-en-4-yl]-1,1-dioxo-1,4-dihydro-1λ^6-benzo[1,2,4]thiadiazin-7-yl}-methanesulfonamide], the IC50 lay in the range of 20 to 100 nM. With `NCCS(=O)(=O)Nc1ccc2c(c1)S(=O)(=O)N=C(C1=C(O)[C@@H]3CCC[C@@H]3N(Cc3ccc(F)cc3)C1=O)N2` (relative stereo) [Example 24, cis-2-Amino-ethanesulfonic acid {3-[1-(4-fluoro-benzyl)-4-hydroxy-2-oxo-2,4-a,5,6,7,7a-hexahydro-1H-[1]pyrindin-3-yl]-1,1-dioxo-1,4-dihydro-1λ^6 benzo[1,2,4]thiadiazin-7-yl}-amide] the figure was 20 to 100 nM; with `CS(=O)(=O)Nc1ccc2c(c1)S(=O)(=O)C=C(C1=C(O)[C@@H]3CCC[C@@H]3N(Cc3ccc(F)cc3)C1=O)N2` (relative stereo) [Example 25, cis-N-{3-[1-(4-Fluoro-benzyl)-4-hydroxy-2-oxo-2,4-a,5,6,7,7a-hexahydro-1H-[1]pyrindin-3-yl]-1,1-dioxo-1,4-dihydro-1λ^6-benzo[1,4]thiazin-7-yl}-methanesulfonamide], 20 to 100 nM.

As for `CS(=O)(=O)Nc1ccc2c(c1)S(=O)(=O)N=C(C1=C(O)[C@@H]3CC=CC[C@@H]3N(Cc3ccc(F)cc3)C1=O)N2` (relative stereo) [Example 37, cis-N-{3-[1-(4-Fluoro-benzyl)-4-hydroxy-2-oxo-1,2,4a,5,8,8a-hexahydro-quinolin-3-yl]-1,1-dioxo-1,4-dihydro-1λ^6 benzo[1,2,4]thiadiazin-7-yl}-methanesulfonamide], the IC50 lay in the range of 20 to 100 nM. Compound `CN(C)N1C(=O)C(C2=NS(=O)(=O)c3cc(NS(C)(=O)=O)ccc3N2)=C(O)[C@@H]2CCC[C@@H]21` (relative stereo) [Example 38, cis-N-[3-(1-Dimethylamino-4-hydroxy-2-oxo-2,4-a,5,6,7,7a-hexahydro-1H-[1]pyrindin-3-yl)-1,1-dioxo-1,4-dihydro-1λ^6-benzo[1,2,4]thiadiazin-7-yl]-methanesulfonamide hydrochloride] showed an IC50 of 1000 to 100000 nM.
